Measured values from PMC4021972 (2014).

Test system: KRAS utr-2 (RNA, G4) GGAAGGCGGCGG
Assay: UV-vis titration (Soret band)
Settings: 100 mM KCl; 50 mM Tris-HCl pH 7.4 (from methods); 6 μM C14 titrated with G4-RNA; simple binding equation

CCCCCCCCCCCCCC[n+]1ccc(-c2c3nc(c(-c4cc[n+](C)cc4)c4ccc([nH]4)c(-c4cc[n+](C)cc4)c4nc(c(-c5cc[n+](C)cc5)c5ccc2[nH]5)C=C4)C=C3)cc1
KD: ~ 5 × 10^-7 M
